From patent US8293786B2 (Alltranz Inc., priority 2007, dated 2012)

Columns and labels:
human abdominal skin = assay: In vitro human skin permeation and skin disposition, flow-through diffusion cells (Example 1); type: in vitro ADME
Description: Flow through diffusion cells were used for the permeation studies. HEPES-buffered Hanks' balanced salts containing 40% (polyethylene glycol) PEG 400 with gentamicin was used for the receiver compartment. Donor solution was comprised of either 100% propylene glycol (PG) solution or a rubbed in gel formulation. […] Drug accumulation in the skin after a 24 or 36 h diffusion experiment was determined as μmol/g wet tissue weight.
The skin samples used in the following experiments were obtained from abdominal reduction surgery and dermatomed to a thickness of approximately 200 μm. The skin samples used herein were frozen at −20° C. for less than six months.
1 L of receiver fluid was prepared by measuring 1 L of nanopure water into a graduated cylinder. 90% of the water was added to an Erlenmeyer flask. Hanks' salts (1 bottle) were added to the water along with 5.96 g of HEPES and 0.35 g of sodium bicarbonate. The pH of the solution was adjusted with 1 N sodium hydroxide solution to pH 7.4. The remaining water was added and the receiver fluid was filtered through a 0.2μ filter (Millipore, Billerica, Mass.). 50 mg of gentamicin was added to the filtered receiver fluid and 400 mL of the receiver fluid was removed and replaced with 400 mL of PEG 400.
Two different formulations were used for charging the donor compartment. Drugs were made up in either 100% PG or a gel formulation. For the PG solution, approximately 50-120 mg of the appropriate drug was weighed into a glass silanized culture tube. The gel formulation resulted from the mixing of absolute ethanol, nanopure water, IPM, Carbopol® 980, 0.1 N aqueous sodium hydroxide solution and the respective drug.
Dermatomed skin harvested from abdominoplasty, stored at −20° C., was used for the experiments. A PermeGear flow-through (In-Line, Riegelsville, Pa.) diffusion cell system was used for the skin permeation studies.
Diffusion cells were kept at 32° C. with a circulating water bath. Human epidermal skin was arranged in the diffusion cell with stratum corneum (upper layer of skin) facing the donor compartment. Permeation area of the skin was 0.95 cm^2. Data was collected from a human skin donor with three to four diffusion cells per treatment.
Receiver solution was HEPES-buffered Hanks' balanced salts with gentamicin containing 40% PEG 400 at a pH of 7.4 and flow rate was adjusted to 0.8 mL/h. Each cell was charged with 0.050 mL of the respective drug formulation (donor solution) or with 0.035 mL of gel formulation which was rubbed into the skin for 15 sec with a Teflon coated rod. The formulation was applied to ensure complete coverage. Diffusion cells were covered with a cap for the duration of the study.
Samples were collected into scintillation vials in 3 h increments for either 24 h or 36 h. All the samples were stored at 4° C. until extracted. An aliquot (0.5 mL) of the diffusion sample was placed into a silanized HPLC vial and 0.5 mL of acetonitrile was added to the sample, capped and vortexed.
At the end of the experiment, the skin tissue was removed from the diffusion cell, rinsed with nanopure water, and blotted dry with a paper towel. The skin was tape stripped twice using book tape (Scotch™, 3M, St. Paul, Minn.) to remove drug formulation adhering to the tissue surface. The area of skin in contact with the drug was cut out, chopped up and placed in a pre-weighed scintillation vial. Ten mL of acetonitrile was added to the vial and drug was extracted from the skin by shaking at room temperature overnight. The following day a 0.1 mL aliquot was removed and diluted with an additional 0.9 mL of acetonitrile. The diluted sample was added to the silanized HPLC vial for analysis.
At the end of the experiment, a 0.01 mL aliquot of the PG donor solution was removed and added to a scintillation vial containing 10 mL of acetonitrile. The vials were vortexed and then sonicated for 15 min. An aliquot of 1 mL was removed and transferred into a silanized HPLC vial for analysis.

[1] = Plasma stability of cannabidiol prodrugs (bioconversion to parent drug); type: in vitro ADME; settings: Table 20, di-prodrug in plasma; for % mono-prodrug at time (h): mono-prodrug formed
Description: An approximated 1 mg/mL stock solution of each prodrug was prepared in 100 μL of ethanol and 900 μL of acetonitrile. Ten (10) μL of stock was spiked into 1 mL of plasma and vortexed. The samples were kept sealed in an amber vial and samples were obtained to analyze for bioconversion to parent drug.

[2] = Table 3, in propylene glycol, prodrug applied

**Q.** With `C=C(C)[C@@H]1CCC(C)=C[C@H]1c1c(OC(=O)CCN(C)C)cc(CCCCC)cc1OC(=O)CCN(C)C` [ALL00101, CBD bis(3-(dimethylamino)propionate)] as the compound, how does the “flux enhancement (in words)” value (human abdominal skin; Example 1) read?
**A.** No flux enhancement

**Q.** What about the “form in which the prodrug permeated through the human skin” value (human abdominal skin; Example 1) of the same compound?
**A.** permeated through the human skin as cannabidiol

**Q.** What about the “found in the skin disposition (tissue) samples” value (human abdominal skin; Example 1) of the same compound?
**A.** Both cannabidiol and intact prodrug were found

**Q.** What about the “intact prodrug in the diffusion samples (receiver samples)” value (human abdominal skin; Example 1) of the same compound?
**A.** No intact prodrug was found

**Q.** And the “total cannabidiol in the skin compared to cannabidiol” value (human abdominal skin; Example 1)?
**A.** higher

**Q.** And the “24 h cumulative amt” value (human abdominal skin; [2])?
**A.** 11.0 ± 0.1 nmol

**Q.** And the Flux (human abdominal skin; [2])?
**A.** 1.0 ± 0.4 nmol/cm^2/h

**Q.** And the Lag time (human abdominal skin; [2])?
**A.** 11.7 ± 5.1 h

**Q.** What about the “24 h skin conc” value (human abdominal skin; Table 3, in propylene glycol, prodrug applied, found in skin as CBD) of the same compound?
**A.** 17.4 ± 4.3 (CBD) μmol/g

**Q.** And the “24 h skin conc” value (human abdominal skin; Table 3, in propylene glycol, prodrug applied, found in skin as PD (prodrug))?
**A.** 29.2 ± 7.6 (PD) μmol/g

**Q.** And the “% mono-prodrug at time (h)” value ([1]; 1 h)?
**A.** 22%

**Q.** And the “% mono-prodrug at time (h)” value ([1]; 20 h)?
**A.** 11%

**Q.** What about the “% Di-prodrug at time (h)” value ([1]; 0 h) of the same compound?
**A.** 100%

**Q.** And the “% Di-prodrug at time (h)” value ([1]; 1 h)?
**A.** 75%

**Q.** And the “% Di-prodrug at time (h)” value ([1]; 20 h)?
**A.** 1%
